Values of other authors in publication PMC6675714 (Cancer Medicine, 2019).
Read-outs that look alike come from different tables or passages of the source.

What was measured:
[1] = system: advanced stages of CCRCC; details: chemo‐monotherapies; cited from earlier work
[2] = system: Caki‐1 tumor; details: cited from earlier work; for T/C (tumor growth): same xenograft mice model (Caki‐1, NMRI:nu/nu)
[3] = system: A431 tumor; parameters: method as in PMID 28959398; details: A431 tumor‐bearing female BALB/cA.Cg‐Foxn1^nu/CrINarI; cited from earlier work
[4] = system: H‐Ras/Raf‐1 interaction; parameters: method as in PMID 28959398; details: cited from earlier work
[5] = Caki‐1 tumor‐bearing female NMRI:nu/nu mice

O=c1[nH]cc(F)c(=O)[nH]1 [5‐FU]
Response rate [1]: ~20% | Survival [1]: 15 months

CC(=O)OCC1OC([S][Au-][c]2n(Cc3ccccc3)c(-c3ccccc3)c(-c3ccccc3)[n+]2Cc2ccccc2)C(OC(C)=O)C(OC(C)=O)C1OC(C)=O (centres unmarked) [NHC‐AuSR]
T/C (tumor growth) [2]: 47% | Side effects ([2]; same xenograft mice model): no severe side effects | ki‐67 or CD31 markers ([2]; same xenograft mice model): no decrease

[Cl][Au-][c]1n(Cc2ccccc2)c(-c2ccccc2)c(-c2ccccc2)[n+]1Cc1ccccc1 [NHC‐Au‐Cl]
T/C (tumor growth) [2]: 47% | Side effects ([2]; same xenograft mice model): no severe side effects | ki‐67 or CD31 markers ([2]; same xenograft mice model): no decrease

CCN(CC)c1ccc(C[c-]2cccc2)cc1.CCN(CC)c1ccc(C[c-]2cccc2)cc1.[Cl][Ti+2][Cl] [Titanocene Y*]
Side effects [2, 5]: no severe side effects | Reduction of proliferation marker ki‐67 ([2]; Caki‐1 xenograft): 21% | Vascularization ([2]; Caki‐1 xenograft): decreased vascularization | Weight loss ([2]; Caki‐1 xenograft): dose‐dependent weight loss

COc1ccc(C[c-]2cccc2)cc1.COc1ccc(C[c-]2cccc2)cc1.[Cl][V+2][Cl] [Vanadocene Y]
Side effects [2, 5]: no severe side effects

CCCCCOC(=O)Nc1nc(=O)n([C@@H]2O[C@H](C)[C@@H](O)[C@H]2O)cc1F [capecitabine]
Response rate [1]: ~20% | Survival [1]: 15 months

[Ir(tpy)(dnbpy)]
Tumor growth [3]: tumor growth inhibition | H‐Ras/Raf‐1 interaction [4]: inhibiting
